# Measurements: US20260098007A1, “Compounds and Their Use in Filtering Ultraviolet and/or High-Energy Visible Light” (Soliome Inc., priority 2022, published 2026)
# Where a SMILES comes first, the peptide text is derived from it. [ ]: non-standard residue; d: D form. Kyn = Nc1ccccc1C(=O)C[CH](N)C(=O)O
# Columns and labels:
# [1] = OxiSelect Hydroxyl Radical Antioxidant Capacity (HORAC) Activity Assay; format: biochemical; details: for antioxidant potential (HORAC) compared with gallic acid: result in words
# Excerpt: An OxiSelect Hydroxyl Radical Antioxidant Capacity (HORAC) Activity Assay (Cell Biolabs Inc. catalog #STA-346-T) was used to determine the antioxidant potential of compound 4 (butyl 4-(2-aminophenyl)-2-(4-(2-aminophenyl)-2-butyramido-4-oxobutanamido)-4-oxobutanoate) following the manufacturer's protocol. Gallic Acid (GA) was used as antioxidant Calibrator: The HORAC assay was used to evaluate the application of the compounds of the invention as antioxidant.
# A small amount of compound 4 was resuspended in assay diluent and the concentration determined using the extinction coefficient previously determined at 368 nm (6070 M^−1 cm^−1). The concentration of the stock solution was 624 μM. Three concentrations of the compound were tested in the assay: 468 μM, 312 μM, and 156 μM. The assay was run in a clear bottomed 96-well plate using a Molecular Devices SpectraMax M2 with an excitation wavelength of 480 nm and an emission wavelength of 530 nm. The emission wavelength cutoff was set to 515 nm. The photomultiplier sensitivity set to medium. The plate was read once a minute for 60 minutes.
# Compounds 42, 43, 44, and 46, were tested for their antioxidant capacity as described as previously described using an OxiSelect Hydroxyl Radical Antioxidant Capacity (HORAC) Activity Assay (Cell Biolabs Inc. catalog #sta-346-T).
# [2] = Absorbance spectrum (ultraviolet-visible spectroscopy, diode array detector); format: physicochemical; details: for absorbance region (in words): FIG. 1 and 2
# Procedure: High pressure liquid chromatography: Samples were suspended in ethanol (Sigma Aldrich 103343081, CAS 64-17-5) and injected onto a reverse phase base deactivated silica C-18 column, […], 150×4.6 mm (Hypersil 9867). This column was temperature controlled at 35° C. using a Shimadzu CTO-10A column oven. Samples were injected with a Shimadzu SIL-10AD VP auto injector. The program was run using a Shimadzu LC1-20AD pump system, and detection was monitored with ultraviolet-visible spectroscopy from 200 to 700 nm using a Shimadzu SPD-M20A diode array detector.
# skin = assay: Skin protection against damage by UV (erythema); format: in vivo; details: 10% (w/w) solution at 2 mg/cm^2 on skin, Sperti Sun Lamp 20 cm for 10 min, vs unprotected skin
# Procedure: To test the protective capability of this class of compounds against damage to skin by UV, a 10% (w/w) solution of compounds was applied to skin at 2 mg/cm^2 and allowed to dry for 15 minutes. UV light was introduced using a […] Sun Lamp (model Miami P107). The application area on the skin was held facing the lamp at a distance of 20 cm for 10 min.
# [3] = Determination of maximal UV absorbance, extinction coefficients and critical wavelengths (UV visible spectroscopy); format: physicochemical; details: for peak absorbance: UV visible spectroscopy, diluted in ethanol; for critical wavelength: in vitro, 90% of the total absorbance integrated from 290 to 400 nm
# Procedure: Extinction coefficients were determined by measuring the dry mass of each compounds and diluting it serially in ethanol (CAS […]). A series of concentrations were tested with UV visible spectroscopy.
# In vitro critical wavelengths were determined by integrating the total absorbance from 290 to 400 nm and finding the region under that curve from higher energy to lower energy that is equal to 90% of the total absorbance, similar to that described by Diffey B. L., et al. J. Am. Acad. Dermatol. 2000, 43, 1024-1035.
compound,measurement,setting,value
"COC(=O)C(CC(=O)c1ccccc1N)NC(=O)C[N+](C)(C)C (centres unmarked) [Compound 43, 2-((4-(2-aminophenyl)-1-methoxy-1,4-dioxobutan-2-yl)amino)-N,N,N-trimethyl-2-oxoethan-1-aminium]",antioxidant potential (HORAC) compared with gallic acid,[1],"equal, or greater than, gallic acid"
"CC(=O)NC(CC(=O)c1ccccc1N)C(N)=O (centres unmarked) [Compound 44, 2-acetamido-4-(2-aminophenyl)-4-oxobutanamide]",antioxidant potential (HORAC) compared with gallic acid,[1],"equal, or greater than, gallic acid"
"CCCC(=O)Nc1ccccc1C(=O)CC(NC(C)=O)C(=O)NC(CC(=O)c1ccccc1NC(=O)CCC)C(=O)OC (centres unmarked) [Compound 2, Methyl 2-(2-acetamido-4-(2-butyramidophenyl)-4-oxobutanamido)-4-(2-butyramidophenyl)-4-oxobutanoate]",absorbance region (in words),[2],strong absorbance in the UVB region
"Nc1ccccc1C(=O)CC(NC(=O)CCCC(=O)O)C(=O)O (centres unmarked) [Compound 46, 5-((3-(2-aminophenyl)-1-carboxy-3-oxopropyl)amino)-5-oxopentanoic acid]",antioxidant potential (HORAC) compared with gallic acid,[1],"equal, or greater than, gallic acid"
"COC(=O)C(CC(=O)c1ccccc1N)NC(=O)C(CC(=O)c1ccccc1N)NC(C)=O (centres unmarked) [Compound 1, methyl 2-(2-acetamido-4-(2-aminophenyl)-4-oxobutanamido)-4-(2-aminophenyl)-4-oxobutanoate] (Ac-[Kyn]-[Kyn]-OMe; configuration not given here)",absorbance upper wavelength limit,[2]; FIG. 1,up to 410 nm
same,absorbance region (in words),[2],strong absorbance in the UVA region
"Nc1ccccc1C(=O)CC(NC(=O)CCC(=O)O)C(=O)O (centres unmarked) [Compound 42, 4-(2-aminophenyl)-2-(3-carboxypropanamido)-4-oxobutanoic acid]",antioxidant potential (HORAC) compared with gallic acid,[1],"equal, or greater than, gallic acid"
same,erythema after UV exposure,skin,significantly reduced erythema
"CCCCOC(=O)C(CC(=O)c1ccccc1NC(=O)CCC)NC(=O)C(CC(=O)c1ccccc1NC(=O)CCC)NC(=O)CCC (centres unmarked) [Compound 5, butyl 2-(2-butyramido-4-(2-butyramidophenyl)-4-oxobutanamido)-4-(2-butyramidophenyl)-4-oxobutanoate]",peak absorbance,[3],around 325 nm
same,critical wavelength,[3],355 nm
same,extinction coefficient,"[3]; slope of absorbance vs concentration, in ethanol, at peak absorbance",4600 M⁻¹ cm⁻¹
"CCCCOC(=O)C(CC(=O)c1ccccc1N)NC(=O)C(CC(=O)c1ccccc1N)NC(=O)CCC (centres unmarked) [Compound 4, butyl 4-(2-aminophenyl)-2-(4-(2-aminophenyl)-2-butyramido-4-oxobutanamido)-4-oxobutanoate]",antioxidant potential (HORAC),"[1]; tested at 468 μM, 312 μM and 156 μM, gallic acid as calibrator",1.8 gallic acid equivalents per mole
same,peak absorbance,[3],around 368 nm
same,critical wavelength,[3],385 nm
